Structures can show the parent of a compound that is named as a salt. Where two headings read alike, the source gives them in different places.
Experiments:
[1] = system: human lung cancer cell line H1299; experiment: Caspase cascade activation (DEVD-R110 fluorogenic substrate) in H1299 cells; type: cell-based; settings: read-out: Caspase Activation Potency EC50 (nM) (24 h) H1299
Experimental: (§1) Human breast cancer cell line T-47D, human lung cancer cell line H1299 and human hepatocellular carcinoma cell line SNU398 were grown according to media component mixtures designated by American Type Culture Collection+10% FCS (Invitrogen Corporation), in a 5% CO2-95% humidity incubator at 37° C. T-47D and H1299 cells were maintained at a cell density between 50 and 80% confluency at a cell density of 0.1 to 0.6×10^6 cells/mL. Cells were harvested at 600×g and resuspended at 0.65×10^6 cells/mL into appropriate media+10% FCS. An aliquot of 22.5 μL of cells was added to a well of a 384-well microtiter plate containing 2.5 μL of a 10% DMSO in RPMI-1640 media solution containing 0.16 to 100 μM of N-(4-methoxyphenyl)-N, 2-dimethylthieno[3,2-d]pyrimidin-4-amine or other test compound (0.016 to 10 μM final). An aliquot of 22.5 μL of cells was added to a well of a 384-well microtiter plate containing 2.5 μL of a 10 % DMSO in RPMI-1640 media solution without test compound as the control sample. The samples were mixed by agitation and then incubated at 37° C. for 24 h or 48 h in a 5% CO2-95% humidity incubator. After incubation, the samples were removed from the incubator and 25 μL of a solution containing 14 μM of N-(Ac-DEVD)-N′-ethoxycarbonyl-R110 (SEQ ID No.:1) fluorogenic substrate (Cytovia, Inc.; WO99/18856), 20% sucrose (Sigma), 20 mM DTT (Sigma), 200 mM NaCI (Sigma), 40 mM Na PIPES buffer pH 7.2 (Sigma), and 500 μg/mL lysolecithin (Calbiochem) was added. The samples were mixed by agitation and incubated at room temperature. Using a fluorescent plate reader (Model SPECTRAfluor Plus, Tecan), an initial reading (T=0) was made approximately 1-2 min after addition of the substrate solution, employing excitation at 485 nm and emission at 530 nm, to determine the background fluorescence of the control sample. After the 3 h incubation, the samples were read for fluorescence as above (T=3 h).
(§2) The Relative Fluorescence Unit values (RFU) were used to calculate the sample readings as follows: RFU(T=3h)-Control RFU(T=0)=Net RFU(T=3h)
(§3) The activity of caspase cascade activation was determined by the ratio of the net RFU value for N-(4-methoxyphenyl)-N,2-dimethylthieno[3,2-d]pyrimidin-4-amine or other test compound to that of control samples. The EC50 (nM) was determined by a sigmoidal dose-response calculation (Prism 3.0, GraphPad Software Inc.).

[2] = system: human breast cancer cell line T-47D; experiment: Caspase cascade activation (DEVD-R110 fluorogenic substrate) in T-47D cells; type: cell-based; settings: 24 h, read-out: Caspase Activation Potency EC50 (nM) (24 h) T-47D
Experimental: as §1, §2, §3

EC50 ([1]; Homo sapiens, NCI-H1299, 24 h)	EC50 ([2]; Homo sapiens, T47D)	EC50 ([1]; H1299, 24 h)	EC50 [2]	Compound
281 nM	233 nM			COc1ccc(N(C)c2nc(C)nc3c(C)csc23)cc1 [Example 3, N-(4-Methoxyphenyl)-N,2,7-trimethylthieno[3,2-d]pyrimidin-4-amine]
> 10000 nM	> 10000 nM			COc1ccc(N(C)c2ncnc3cc(I)sc23)cc1 [Example 7, 6-Iodo-N-(4-methoxyphenyl)-N-methylthieno[3,2-d]pyrimidin-4-amine]
> 10000 nM	> 10000 nM			COc1ccc(N(C)c2ncnc3cc(-c4cccnc4)sc23)cc1 [Example 8, N-(4-Methoxyphenyl)-N-methyl-6-(pyridin-3-yl)thieno[3,2-d]pyrimidin-4-amine]
525 nM	518 nM			COc1ccc(N(C)c2ncnc3c(C)csc23)cc1 [Example 10, N-(4-Methoxyphenyl)-N,7-dimethylthieno[3,2-d]pyrimidin-4-amine]
> 10000 nM	> 10000 nM			COc1ccc(Nc2ncnc3scc(C)c23)cc1 [Example 11, N-(4-Methoxyphenyl)-5-methylthieno[2,3-d]pyrimidin-4-amine]
> 10000 nM	> 10000 nM			COc1ccc(Nc2nc(C)nc3scc(C)c23)cc1 [Example 13, N-(4-Methoxyphenyl)-2,5-dimethylthieno[2,3-d]pyrimidin-4-amine hydrochloride]
> 10000 nM	> 10000 nM			COc1ccc(Nc2ncnc3ccsc23)cc1 [Example 14, N-(4-Methoxyphenyl)-thieno[3,2-d]pyrimidin-4-amine hydrochloride]
> 10000 nM	> 10000 nM			COc1ccc(OC)c(N(C)c2nc(C)nc3ccsc23)c1 [Example 16, N-(2,5-Dimethoxyphenyl)-N,2-dimethylthieno[3,2-d]pyrimidin-4-amine]
> 10000 nM	> 10000 nM			Cc1cc(N(C)c2ncnc3ccsc23)no1 [Example 17, N-Methyl-N-(5-methylisoxazol-3-yl)thieno[3,2-d]pyrimidin-4-amine]
184 nM	125 nM			COc1ccc(N(C)c2ncnc3sc(C)cc23)cc1 [Example 18, N-(4-Methoxy-phenyl)-N,6-dimethylthieno[2,3-d]pyrimidin-4-amine hydrochloride]
		615 nM	337 nM	COc1ccc(N(C)c2nc(-c3ccccc3)nc3ccsc23)cc1 [Example 19, N-(4-Methoxyphenyl)-N-methyl-2-phenylthieno[3,2-d]pyri idin-4-amine hydrochloride]
4940 nM	2500 nM			COc1ccc(OC)c(N(C)c2ncnc3ccsc23)c1 [Example 21, N-(2,5 -Dimethoxyphenyl)-N-methylthieno[3,2-d]pyrimidin-4-amin]
327 nM	185 nM			COC(=O)c1ccc(N(C)c2ncnc3ccsc23)cc1 [Example 22, N-(4-Methoxycarbonylphenyl)-N-methylthieno[3,2-d]pyrimidin-4-amine hydrochloride]
> 10000 nM	> 10000 nM			COc1ccccc1N(C)c1ncnc2ccsc12 [Example 25, N-(2-Methoxyphenyl)-N-methylthieno[3,2-d]pyrimidin-4-amine]
2620 nM	1630 nM			COc1ccc(N(C)c2ncnc3ccsc23)cc1OC [Example 26, N-(3,4-Dimethoxyphenyl)-N-methylthieno[3,2-d]pyrimidin-4-amine]
> 10000 nM	> 10000 nM			COc1cccc(N(C)c2ncnc3ccsc23)c1 [Example 27, N-(3-methoxyphenyl)-N-methylthieno[3,2-d]pyrimidin-4-amine]
> 10000 nM	> 10000 nM			COc1cc(OC)cc(N(C)c2ncnc3ccsc23)c1 [Example 28, N-(3,5-dimethoxyphenyl)-N-methylthieno[3,2-d]pyrimidin-4-amine]

— patent US20070213305A1, “N-alkyl-N-aryl-thienopyrimidin-4-amines and analogs as activators of caspases and inducers of apoptosis and the use thereof” (Cytovia, Inc., priority 2005, published 2007)
